# Test results reported in patent US20260102501A1, “ANTI-CANCER NUCLEAR HORMONE RECEPTOR-TARGETING COMPOUNDS” (Nuvation Bio Inc., priority 2022, published 2026).
# Substitutions are numbered along the chain they refer to. Structures can show the parent of a compound that is named as a salt. Where two headings read alike, the source gives them in different places.
# How the values were obtained:
# [1] = system: 22Rv1 cells; experiment: Cell viability assay (CellTiterGlo); conditions: Homo sapiens, 22Rv1, 144 h, read-out: 22RV1 (IC50, nM)
# [2] = target: T1, AR (cytosol from LnCaP cells) (Homo sapiens, UniProt P10275, T878A); experiment: AR binding assay (3H-R1881 displacement)
# T1 sequence (P10275 1-920 T878A): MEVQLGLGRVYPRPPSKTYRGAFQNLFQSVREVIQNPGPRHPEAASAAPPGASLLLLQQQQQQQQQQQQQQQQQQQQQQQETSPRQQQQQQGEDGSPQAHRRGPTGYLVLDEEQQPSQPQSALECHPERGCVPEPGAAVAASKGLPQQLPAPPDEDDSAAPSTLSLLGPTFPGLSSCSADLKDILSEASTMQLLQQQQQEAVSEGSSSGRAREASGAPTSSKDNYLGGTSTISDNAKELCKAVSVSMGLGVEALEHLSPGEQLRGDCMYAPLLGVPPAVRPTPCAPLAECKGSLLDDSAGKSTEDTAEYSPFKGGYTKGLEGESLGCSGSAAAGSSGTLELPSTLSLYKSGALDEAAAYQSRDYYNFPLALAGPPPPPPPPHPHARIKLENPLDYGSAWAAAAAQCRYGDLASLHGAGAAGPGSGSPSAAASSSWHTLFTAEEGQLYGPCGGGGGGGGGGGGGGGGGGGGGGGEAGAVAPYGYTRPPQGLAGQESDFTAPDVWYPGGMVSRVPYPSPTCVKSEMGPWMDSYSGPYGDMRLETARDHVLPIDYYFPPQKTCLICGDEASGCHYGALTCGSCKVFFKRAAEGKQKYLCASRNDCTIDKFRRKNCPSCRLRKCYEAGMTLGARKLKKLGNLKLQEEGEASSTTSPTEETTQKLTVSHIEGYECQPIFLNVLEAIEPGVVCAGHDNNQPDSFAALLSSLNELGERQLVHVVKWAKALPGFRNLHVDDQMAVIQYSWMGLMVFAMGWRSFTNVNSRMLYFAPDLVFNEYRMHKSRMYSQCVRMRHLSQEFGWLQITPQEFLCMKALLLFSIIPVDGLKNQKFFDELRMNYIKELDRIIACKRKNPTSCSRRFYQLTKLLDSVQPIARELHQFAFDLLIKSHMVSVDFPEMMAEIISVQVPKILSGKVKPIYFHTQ
# Experimental: The plate was then centrifuged at 3000 rpm for 30 minutes at 4° C.
# [3] = system: IEC6 cells; experiment: Cell viability assay (CellTiterGlo); conditions: Rattus norvegicus, IEC-6, 144 h, read-out: IEC-6 (IC50, nM)
# [4] = system: LNCap cells; experiment: Cell viability assay (CellTiterGlo); format: cell-based; conditions: Homo sapiens, 144 h
# [5] = target: T2, full-length androgen receptor (HEK293 cells stably expressing) (Homo sapiens, UniProt P10275); experiment: AR antagonism assay (luciferase reporter)
# T2 sequence (P10275 1-920): T1 sequence (P10275 1-920 T878A) with A878T
# [6] = 6 days incubation, CellTiterGlo, read-out: LNCap (IC50)
Structure (SMILES),IC50 [1],IC50 [2],IC50 [3],"IC50 ([4]; read-out: LNCap (IC50, nM))",IC50 [5],"IC50 [4, 6]"
"CC[C@@]1(O)C(=O)OCc2c1cc1n(c2=O)Cc2cc3c(CN(C)C)c(OC(=O)N4C[C@H](C)N(CC5CCN(c6ccc(C(=O)N[C@H]7CC[C@H](Oc8ccc(C#N)c(Cl)c8C)CC7)nn6)CC5)C[C@H]4C)ccc3nc2-1 [Compound 32, (S)-10-((Dimethylamino)methyl)-4-ethyl-4-hydroxy-3,14-dioxo-3,4,12,14-tetrahydro-1H-pyrano[3′,4′:6,7]indolizino[1,2-b]quinolin-9-yl (2R,5S)-4-((1-(6-(((1r,4r)-4-(3-Chloro-4-cyano-2-methylphenoxy)cyclohexyl)carbamoyl)pyridazin-3-yl)piperidin-4-yl)methyl)-2,5-dimethylpiperazine-1-carboxylate Formate]",101 to 1000 nM,101 to 1000 nM,> 1000 nM,101 to 1000 nM,101 to 1000 nM,
"CC[C@@]1(O)C(=O)OCc2c1cc1n(c2=O)Cc2cc3c(CN(C)C)c(OC(=O)N4CCN(CCCCCCO[C@H]5CC[C@H]6[C@@H]7CCC8=CC(=O)CCC8=C7CC[C@]56C)CC4)ccc3nc2-1 [Compound 45, (S)-10-((dimethylamino)methyl)-4-ethyl-4-hydroxy-3,14-dioxo-3,4,12,14-tetrahydro-1H-pyrano[3′,4′:6,7]indolizino[1,2-b]quinolin-9-yl 4-(6-(((8S,13S,14S,17S)-13-methyl-3-oxo-2,3,6,7,8,11,12,13,14,15,16,17-dodecahydro-1H-cyclopenta[a]phenanthren-17-yl)oxy)hexyl)piperazine-1-carboxylate]",10 to 100 nM,10 to 100 nM,101 to 1000 nM,10 to 100 nM,101 to 1000 nM,
"CC[C@@]1(O)C(=O)OCc2c1cc1n(c2=O)Cc2cc3c(CN4CCN(CCCCCCC5CCN(c6ccc(C(=O)N[C@H]7CC[C@H](Oc8ccc(C#N)c(Cl)c8C)CC7)nn6)CC5)CC4)cccc3nc2-1 [Compound 44, N-((1r,4r)-4-(3-chloro-4-cyano-2-methylphenoxy)cyclohexyl)-6-(4-(6-(4-(((S)-4-ethyl-4-hydroxy-3,14-dioxo-3,4,12,14-tetrahydro-1H-pyrano[3′,4′:6,7]indolizino[1,2-b]quinolin-10-yl)methyl)piperazin-1-yl)hexyl)piperidin-1-yl)pyridazine-3-carboxamide]",101 to 1000 nM,10 to 100 nM,> 1000 nM,,> 1000 nM,101 to 1000 nM
CC[C@@]1(O)C(=O)OCc2c1cc1n(c2=O)Cc2cc3c(CN4CCN(C(=O)CCCCCC5CCN(c6ccc(C(=O)N[C@H]7CC[C@H](Oc8ccc(C#N)c(Cl)c8C)CC7)nn6)CC5)CC4)c(O)ccc3nc2-1 [Compound No. 50],10 to 100 nM,10 to 100 nM,101 to 1000 nM,,> 1000 nM,10 to 100 nM
CC[C@@]1(O)C(=O)OCc2c1cc1n(c2=O)Cc2cc3c(CN4CCN(C(=O)CCCCCC5CCN(c6ccc(C(=O)N[C@H]7CC[C@H](N(C)c8ccc(C#N)c(Cl)c8)CC7)nn6)CC5)CC4)c(O)ccc3nc2-1 [Compound No. 49],10 to 100 nM,10 to 100 nM,> 1000 nM,,> 1000 nM,10 to 100 nM
"CC[C@@]1(O)C(=O)OCc2c1cc1n(c2=O)Cc2c-1nc1cc(F)c(C)c3c1c2[C@@H](NC(=O)CN1CCN(CCCCCCC2CCN(c4ccc(C(=O)N[C@H]5CC[C@H](Oc6ccc(C#N)c(Cl)c6C)CC5)nn4)CC2)CC1)CC3 [Compound No. 48, N-((1r,4r)-4-(3-chloro-4-cyano-2-methylphenoxy)cyclohexyl)-6-(4-(6-(4-(2-(((1S,9S)-9-ethyl-5-fluoro-9-hydroxy-4-methyl-10,13-dioxo-2,3,9,10,13,15-hexahydro-1H,12H-benzo[de]pyrano[3′,4′:6,7]indolizino[1,2-b]quinolin-1-yl)amino)-2-oxoethyl)piperazin-1-yl)hexyl)piperidin-1-yl)pyridazine-3-carboxamide]",101 to 1000 nM,10 to 100 nM,> 1000 nM,,101 to 1000 nM,101 to 1000 nM
"CC[C@@]1(O)C(=O)OCc2c1cc1n(c2=O)Cc2cc3c(CN(C)C)c(OC(=O)N4C[C@H](C)N(CCCCCCN(C)C5CCN(c6ccc(C(=O)N[C@H]7CC[C@H](Oc8ccc(C#N)c(Cl)c8C)CC7)nn6)CC5)C[C@H]4C)ccc3nc2-1 [Compound 33, (S)-10-((Dimethylamino)methyl)-4-ethyl-4-hydroxy-3,14-dioxo-3,4,12,14-tetrahydro-1H-pyrano[3′,4′:6,7]indolizino[1,2-b]quinolin-9-yl (2R,5S)-4-(6-((1-(6-(((1r,4r)-4-(3-chloro-4-cyano-2-methylphenoxy)cyclohexyl)carbamoyl)pyridazin-3-yl)piperidin-4-yl)(methyl)amino)hexyl)-2,5-dimethylpiperazine-1-carboxylate Formate]",101 to 1000 nM,< 10 nM,> 1000 nM,10 to 100 nM,> 1000 nM,
CC[C@@]1(O)C(=O)OCc2c1cc1n(c2=O)Cc2cc3c(CN4CCN(CCCCCCC5CCN(c6ccc(C(=O)N[C@H]7CC[C@H](Oc8ccc(C#N)c(Cl)c8C)CC7)nn6)CC5)CC4)c(O)ccc3nc2-1 [Compound No. 52],10 to 100 nM,10 to 100 nM,101 to 1000 nM,,10 to 100 nM,10 to 100 nM
"CC[C@@]1(O)C(=O)OCc2c1cc1n(c2=O)Cc2cc3c(CN(C)C)c(OC(=O)N4C[C@H](C)N(CC5CCN(c6ccc(C(=O)N[C@H]7CC[C@H](N(C)c8ccc(C#N)c(Cl)c8)CC7)nn6)CC5)C[C@H]4C)ccc3nc2-1 [Compound No. 20, (S)-10-((Dimethylamino)methyl)-4-ethyl-4-hydroxy-3,14-dioxo-3,4,12,14-tetrahydro-1H-pyrano[3′,4′:6,7]indolizino[1,2-b]quinolin-9-yl (2R,5S)-4-((1-(6-(((1r,4r)-4-((3-chloro-4-cyanophenyl)-(methyl)amino)cyclohexyl)carbamoyl)pyridazin-3-yl)piperidin-4-yl)methyl)-2,5-dimethylpiperazine-1-carboxylate]",101 to 1000 nM,10 to 100 nM,> 1000 nM,101 to 1000 nM,> 1000 nM,
CC[C@@]1(O)C(=O)OCc2c1cc1n(c2=O)Cc2cc3c(CN4CCN(C(=O)CCCCCC5CCN(c6ccc(C(=O)N[C@H]7CC[C@H](N(C)c8ccc(C#N)c(Cl)c8)CC7)nn6)CC5)CC4)cccc3nc2-1 [Compound 43],101 to 1000 nM,10 to 100 nM,> 1000 nM,,> 1000 nM,101 to 1000 nM
